One series relates to murine L1210 tumor cells. Description: cytotoxic activity against murine L1210 tumor cells in suspension (3-day cell growth). It counts as cell-based. Particulars: for IC50 / IC90: Mus musculus, 72 h; for IC50: read-out: L-1210 (3-Day Cell Growth) ID50; for IC90: read-out: L-1210 (3-Day Cell Growth) ID90. The procedure: Many of the compounds of the subject invention have useful cytotoxic activity against murine L1210 tumor cells in suspension, which is a standard model for such tests before the compounds are tested in humans. […] Following is a table showing the results of testing various compounds against L1210 in suspension using standard, well-known procedures. The compounds are identified by an internal designation called "U-" number. The structural identify of the "U-" numbered compounds is shown in Chart I.

For another series, the system named is P388 leukemia. Description: antitumor activity in P388 leukemic mice, intraperitoneal. The series is classed as in vivo. The note with it: for ILS at 0.1 mg/kg: at 0.10 mg./kg. An excerpt:
These murine test systems are predictive for clinically useful human antitumor agents (see, for example, A. Geldin, J. M. Vendetti, J. S. MacDonald, F. M. Muggia, J. E. Henney and V. T. DeVita, European J. Cancer, Vol. 17, pp. 129-142, 1981; J. M. Vendetti, Cancer Treatment Reports, Vol. 67, pp. 767-772, 1983; and J. M. Vendetti, R. A. Wesley, and J. Plowman, Advances in Pharmacology and Chemotherapy, Vol. 20, pp. 1-20, 1984), and it is therefore presumed that the compounds of the subject invention will be useful in the control and treatment of cancer in humans when given, for example, intravenously in doses of 0.001 to about 10 mg. per kg. of body weight per day, the exact dose depending on the age, weight and condition of the patient, and on the frequency of administration. Following is a table showing the results of testing various compounds intraperitoneally against P388 leukemic mice using standard well-known procedures (In Vivo cancer, Models, NIH Publication No. 84-2635, 1984). The structural identify of the "U-" numbered compounds is shown in Chart I. In the table %ILS refers to percent increase in life span of treated animals over controls.

For another series, the system named is B16 melanoma. Description: B16 melanoma implanted subcutaneously in mice, single intravenous dose. It counts as in vivo. An excerpt:
(§1) These characteristics are advantageous for antitumor agents.

A further series concerns M5076 ovarian sarcoma. In words: lifespan of mice implanted with M5076 ovarian sarcoma. It counts as in vivo.
Text: as §1

The next series deals with Lewis carcinoma. In words: lifespan of mice implanted with Lewis carcinoma. The series is classed as in vivo.
Text: as §1

Series [1] concerns human lung tumor (Lx-1 carcinoma). In words: human lung tumor (Lx-1 carcinoma) xenograft in nude mice. It counts as in vivo.
Text: as §1
Background: A xenograft is tissue or cells of one species grown in another, often human tumour cells in immunodeficient mice.

For the next series, the system named is solid tumors. Description: activity against solid tumors. Details: species or system mice. The note with it: mouse, in vivo.
Text: as §1

The nature of series [2]: solubility in aqueous solution. It counts as physicochemical.
Series [3] is described as follows: stability in aqueous solution. The series is classed as physicochemical.
In the next series the test system is Klebsiella pneumonia. In words: antimicrobial activity.
Another series deals with Escherichia coli. Description: antimicrobial activity.
The test system of the next series is Staphylococcus aureus. In words: antimicrobial activity.
In the next series the test system is Bacillus subtilis. Description: antimicrobial activity.
The subject of a further series is Sarcina lutea. In words: antimicrobial activity.
For the next series, the system named is Proteus vulgaris. Description: antimicrobial activity.
The subject of series [4] is Salmonella schottmeulerri. Description: antimicrobial activity.
The next series concerns Mycobacterium avium. Description: antimicrobial activity.
Series [5] deals with Saccharomyces pastorianus. In words: antimicrobial activity.
In a further series the test system is Penicillium oxalicum. Description: antimicrobial activity.
The mark [6] stands for this setting: Mus musculus, P388, ip, read-out: P388 % ILS (percent increase in life span over controls).

Each structure is given as a SMILES string. Converted amounts (≈) assume the structure as drawn.

In the case of `COc1ccc2[nH]c(C(=O)N3CC4CC45C3=CC(=O)c3[nH]cc(C)c35)cc2c1` (stereo not drawn) [U-67,786], in the series with murine L1210 tumor cells, the IC50 turned out to be 0.046 ng/mL (≈ 0.123 nM) and the IC90 came out at 0.1 ng/mL (≈ 0.268 nM).
For the compound `Cc1c[nH]c2c1C13CC1CN(C(=O)c1cc4cc(NC(=O)c5cc6cc(NC(N)=O)ccc6[nH]5)ccc4[nH]1)C3=CC2=O` (stereo not drawn) [U-69,060, 1,2,8,8a-tetrahydro-7-methyl-2-[[5-[[[5-ureido-1H-indol-2-yl]carbonyl]amino]-1H-indol-2-yl]carbonyl]cyclopropa[c]pyrrolo[3,2-a]indol-4(5H)-one], in the series with P388 leukemia (setting [6]), the ILS (usually the gain in survival time of treated over control animals, in per cent) at 0.1 mg/kg was 138%.
As to `Cc1c[nH]c2c1C13CC1CN(C(=O)c1cc4cc(NC(=O)c5cc6cc(NC(=O)c7ccccc7)ccc6[nH]5)ccc4[nH]1)C3=CC2=O` (stereo not drawn) [U-68,880], in the series on murine L1210 tumor cells, the IC50 was 0.008 ng/mL (≈ 0.0129 nM) and the IC90 is 0.019 ng/mL (≈ 0.0306 nM). The ILS at 0.1 mg/kg in the series with P388 leukemia (setting [6]) was determined as 71%.
For `Cc1c[nH]c2c1[C@@]13C[C@@H]1CN(C(=O)c1cc4cc(NC(=O)c5cc6ccccc6o5)ccc4[nH]1)C3=CC2=O` [U-73,975], the “increase in life span over control (non-drug treated) animals” value in the series with B16 melanoma was 61%. Besides, the “lifespan of mice implanted with M5076 ovarian sarcoma” value with M5076 ovarian sarcoma is recorded as “significantly increased the lifespan”. For the same compound, the “lifespan of mice implanted with Lewis carcinoma” value in the series with Lewis carcinoma is reported as “significantly increased the lifespan”. For the same compound, the “growth inhibition of human lung tumor (Lx-1 carcinoma) xenograft” value in series [1] was “significantly inhibited the growth”. In the series with solid tumors, the “activity against solid tumors” value is on record as “particularly good activity against solid tumors”. Also, in series [2], the “solubility in aqueous solution” value is on record as “good solubility”. The “stability in aqueous solution” value in series [3] is “good solubility and stability characteristics in aqueous solution”. For the same compound, in the series with Klebsiella pneumonia, the “activity against Klebsiella pneumonia” value is “has activity against”. Moreover, the “activity against Escherichia coli” value with Escherichia coli was “has activity against”. For the same compound, in the series with Staphylococcus aureus, the “activity against Staphylococcus aureus” value is “has activity against”.
In the case of `Cc1c[nH]c2c1C13CC1CN(C(=O)c1ccc4ccccc4n1)C3=CC2=O` (stereo not drawn) [U-68,749, 1,2,8,8a-tetrahydro-7-methyl-2-(quinolinylcarbonyl)cyclopropa[c]pyrrolo[3,2-e]indol-4(5H)-one], in the series on murine L1210 tumor cells, the IC50 was 3.4 ng/mL (≈ 9.57 nM) and the IC90 worked out at 8.4 ng/mL (≈ 23.6 nM).
As for `Cc1c[nH]c2c1C13CC1CN(C(=O)c1ccccc1)C3=CC2=O` (stereo not drawn) [U-66,866, 1,2,8,8a-tetrahydro-7-methyl-2-benzoylcyclopropa[c]pyrrolo[3,2-e]indol-4(5H)-one], in the series on murine L1210 tumor cells, the IC50 stood at 1.5 ng/mL (≈ 4.93 nM) and the IC90 was 4.5 ng/mL (≈ 14.8 nM). Further, in the series on P388 leukemia (Mus musculus, P388, ip, at 12 mg./kg., read-out: P388 % ILS (percent increase in life span over controls)), the ILS at 12 mg/kg is 71%.
Turning to `Cc1c[nH]c2c1C13CC1CN(C(=O)c1cc4cc(NC(N)=O)ccc4[nH]1)C3=CC2=O` (stereo not drawn) [U-69,059, 1,2,8,8a-tetrahydro-7-methyl-2-[[5-ureido-1H-indol-2-yl]carbonyl]cyclopropa[c]pyrrolo[3,2-e]indol-4(5H)-one], the P388 cures in the series on P388 leukemia (at 0.5 mg./kg.) is 4/6.
Consider `Cc1c[nH]c2c1C13CC1CN(C(=O)c1ccc[nH]1)C3=CC2=O` (stereo not drawn) [U-68,819, 1,2,8,8a-tetrahydro-7-methyl-2-(2-pyrrolylcarbonyl)cyclopropa[c]pyrrolo[3,2-e]indol-4(5H)-one], for which, in the series with murine L1210 tumor cells, the IC50 was determined as 0.48 ng/mL (≈ 1.64 nM) and the IC90 stood at 1.5 ng/mL (≈ 5.11 nM). For the same compound, in the series on P388 leukemia (Mus musculus, P388, ip, at 1 mg./kg., read-out: P388 % ILS (percent increase in life span over controls)), the ILS at 1 mg/kg came to 71%.
With `Cc1c[nH]c2c1C13CC1CN(C(=O)c1cc4cc(NC(=O)c5ccccc5)ccc4[nH]1)C3=CC2=O` (stereo not drawn) [U-68,846, 1,2,8,8a-tetrahydro-7-methyl-2-[[5-benzoylamino-1H-indol-2-yl]carbonyl]cyclopropa[c]pyrrolo[3,2-e]indol-4(5H)-one], in the series on murine L1210 tumor cells, the IC50 amounted to 0.034 ng/mL (≈ 0.0735 nM) and the IC90 is 0.096 ng/mL (≈ 0.208 nM). The ILS at 0.05 mg/kg with P388 leukemia (Mus musculus, P388, ip, at 0.05 mg./kg., read-out: P388 % ILS (percent increase in life span over controls)) came to 82%.
As for `Cc1c[nH]c2c1C13CC1CN(C(=O)c1cc4cc(NC(=O)c5cc6ccccc6[nH]5)ccc4[nH]1)C3=CC2=O` (stereo not drawn) [U-68,415], in the series on murine L1210 tumor cells, the IC50 was found to be 0.018 ng/mL (≈ 0.0359 nM) and the IC90 came to 0.044 ng/mL (≈ 0.0877 nM). For the same compound, in the series on P388 leukemia (at 0.05 mg./kg.), the P388 cures is recorded as 4/6.
`Cc1c[nH]c2c1C13CC1CNC3=CC2=O` (stereo not drawn) [U-66,777]: in the series on murine L1210 tumor cells, the IC50 is 180 ng/mL (≈ 899 nM) and the IC90 is 920 ng/mL (≈ 4590 nM).
Regarding `Cc1c[nH]c2c1C13CC1CN(C(=O)c1cc4ccccc4[nH]1)C3=CC2=O` (stereo not drawn) [U-66,694, 1,2,8,8a-tetrahydro-7-methyl-2-(1H-indol-2-ylcarbonyl)cyclopropa[c]pyrrolo(3,2-c]indol-4(5H)-one], in the series on murine L1210 tumor cells, the IC50 was 0.15 ng/mL (≈ 0.437 nM) and the IC90 was determined as 0.34 ng/mL (≈ 0.99 nM). Further, in the series on P388 leukemia (Mus musculus, P388, ip, at 0.63 mg./kg., read-out: P388 % ILS (percent increase in life span over controls)), the ILS at 0.63 mg/kg is 164%. In addition, the “activity against Bacillus subtilis” value in the series with Bacillus subtilis is listed as “have activity against”. Besides, the “activity against Klebsiella pneumonia” value with Klebsiella pneumonia is “have activity against”. Moreover, the “activity against Sarcina lutea” value in the series on Sarcina lutea is listed as “have activity against”. Further, in the series with Escherichia coli, the “activity against Escherichia coli” value is “have activity against”. In addition, the “activity against Proteus vulgaris” value with Proteus vulgaris is “have activity against”. For the same compound, in the series on Staphylococcus aureus, the “activity against Staphylococcus aureus” value was “have activity against”. Moreover, the “activity against Salmonella schottmeulerri” value in series [4] was “have activity against”. Further, the “activity against Mycobacterium avium” value in the series with Mycobacterium avium was “have activity against”. Further, the “activity against Saccharomyces pastorianus” value in series [5] is listed as “have activity against”. Also, in the series on Penicillium oxalicum, the “activity against Penicillium oxalicum” value is recorded as “have activity against”.
Regarding `CC(=O)N1CC2CC23C1=CC(=O)c1[nH]cc(C)c13` (stereo not drawn) [U-66,664], in the series on murine L1210 tumor cells, the IC50 worked out at 4.8 ng/mL (≈ 19.8 nM) and the IC90 was determined as 18 ng/mL (≈ 74.3 nM).
In the case of `CC(=O)N1CC(COS(C)(=O)=O)c2c1cc(O)c1[nH]cc(C)c21` (stereo not drawn) [U-66,665], in the series with murine L1210 tumor cells, the IC50 is 9 ng/mL (≈ 26.6 nM) and the IC90 was determined as 32 ng/mL (≈ 94.6 nM). Also, in the series with Bacillus subtilis, the “activity against Bacillus subtilis” value is recorded as “have activity against”. In the series on Klebsiella pneumonia, the “activity against Klebsiella pneumonia” value is recorded as “have activity against”. Also, the “activity against Sarcina lutea” value in the series on Sarcina lutea was “have activity against”. In the series on Escherichia coli, the “activity against Escherichia coli” value is recorded as “have activity against”. In the series with Proteus vulgaris, the “activity against Proteus vulgaris” value is given as “have activity against”. For the same compound, in the series on Staphylococcus aureus, the “activity against Staphylococcus aureus” value is given as “have activity against”. Moreover, the “activity against Salmonella schottmeulerri” value in series [4] is listed as “have activity against”. For the same compound, the “activity against Mycobacterium avium” value with Mycobacterium avium is given as “have activity against”. The “activity against Saccharomyces pastorianus” value in [5] is listed as “have activity against”. For the same compound, the “activity against Penicillium oxalicum” value in the series on Penicillium oxalicum is reported as “have activity against”.
Turning to `Cc1c[nH]c2c1C13CC1CN(S(C)(=O)=O)C3=CC2=O` (stereo not drawn) [U-62,736], in the series with murine L1210 tumor cells, the “L-1210 (3-Day Cell Growth) ID50” value was 39 ng/mL and the “L-1210 (3-Day Cell Growth) ID90” value amounted to 180 ng/mL.
Consider `COc1c(O)ccc2cc(C(=O)N3CC4CC45C3=CC(=O)c3[nH]cc(C)c35)[nH]c12` (stereo not drawn) [U-67,785, 1,2,8,8a-tetrahydro-7-methyl-2-[(6-hydroxy-7-methoxy-1H-indol-2-yl)carbonyl]cyclopropa[c]pyrrolo[3,2-e]indol-4(5H)-one], for which, in the series with murine L1210 tumor cells, the IC50 is 0.072 ng/mL (≈ 0.185 nM) and the IC90 is 0.19 ng/mL (≈ 0.488 nM). The ILS at 0.06 mg/kg in the series with P388 leukemia (Mus musculus, P388, ip, at 0.06 mg./kg., read-out: P388 % ILS (percent increase in life span over controls)) was 60%.
`Cc1c[nH]c2c1C13CC1CN(C(=O)c1cc4cc(NC#N)ccc4[nH]1)C3=CC2=O` (stereo not drawn) [U-69,058, (1,2,8,8a)-tetrahydro-7-methyl-2-2[[5-cyanoamino-1H-indol-2-yl]carbonyl]cyclopropa[c]pyrrolo[3,2-e]indol-4(5H)-one]: in the series on P388 leukemia (Mus musculus, P388, ip, at 0.50 mg./kg., read-out: P388 % ILS (percent increase in life span over controls)), the ILS at 0.5 mg/kg is 96%.
